In patent publication US12617767B2, “Crystalline forms of somatostatin modulators” (Crinetics Pharmaceuticals, Inc., priority 2019, dated 2026):
Converted amounts (≈) assume the structure as drawn. Read-outs that look alike come from different tables or passages of the source. Values belong to the molecule of their own block, whether it stands above or below them.

Key:
Assay type in all cases: physicochemical
[1] = Slurries of amorphous material (dissolution at room temperature); settings: room temperature (20-23° C.)
Procedure: About 22 mg of amorphous material was dispensed into vials and 0.5 mL (ca. 23 volumes) of the chosen solvent was added, and the mixture was stirred at room temperature (20-23° C.). A solution was formed in water and water saturated MeOAc. Additional solid was added to these solutions, but when a solution remained after roughly doubling the original solid quantity (ca. 90 mg/mL), further addition was ceased. All the other samples remained as slurries. After slurrying for 4 hours, an aliquot was taken for XRPD analysis of the slurry solids from all the samples except the water and water saturated MeOAc samples as they remained solutions. The mixtures continued to stir at room temperature overnight then the remaining slurry solids were collected (total slurry time of about 24 hours).

[2] = Humidity stress tests (XRPD, HPLC purity); settings: 40° C./75% RH/7 days
Procedure: Pattern A was heated to 277° C., monitored by DSC. […] This material was exposed to ˜90% RH at room temperature and slurried in ACN and after 4 hours the Patterns B and I were recovered, respectively.
About 15 mg of Compound A⋅2MSA (Pattern A) was loaded into a 4 mL vial and the opening was covered with a Kimwipe. This was placed in a 20 mL vial with saturated aqueous K2SO4 and sealed to provide an environment of 94-96% Relative Humidity (RH) at room temperature (RT).
About 10 mg of Compound A⋅2MSA Pattern A and Pattern B were loaded into separate 4 mL vials. These were placed in 20 mL vials with saturated aqueous NaCl and sealed to provide an environment of 75% RH at 40° C. […] The same 1 week study was done with Pattern C (+I) and Pattern I, both remained stable by XRPD.

[3] = Equilibrium solubility in simulated fluids and water at 37° C.; settings: for solubility at 24 h: above calibration range
Procedure: The solubility Compound A⋅2MSA, Patterns A, B and I, was measured in water, fasted state simulated gastric fluid (FaSSGF) and fasted state simulated intestinal fluid (FaSSIF) at 37° C. by slurrying in the respective media for 24 hours. 1.5 mL of the fluid was stirred at 37° C. About 5 mg of the specified solid was added to FaSSIF and a thin slurry was immediately formed. As a test, approximately 80 and 60 mg of Pattern A was added to 1.5 mL of water and FaSSGF, respectively without formation of a slurry. Therefore, about 10 mg of the desired Pattern was added to water and FaSSGF solutions. The samples were allowed to stir at 37° C. for 24 hrs. The stir bars were removed from the FaSSIF vials and the solids allowed to settle for 0.5 hours at 37° C. The supernatant/solutions were syringe filtered and recovered for analysis by HPLC as well as for pH measurement.

[4] = Karl-Fischer titration for water determination
Procedure: Karl-Fischer titration for water determination was done using a Mettler Toledo C20S Coulometric KF Titrator equipped with a current generator cell with a diaphragm, and a doubleplatinum-pin electrode. Aquastar™ CombiCoulomat fritless reagent was used in both the anode and cathode compartments. Samples of approximately 0.03-0.10 g were dissolved in the anode compartment and titrated until the solution potential dropped below 100 mV. Hydranal 1 wt. % water standard is used for validation prior to sample analysis.

[5] = Dynamic Vapor Sorption (DVS)
Procedure: Dynamic Vapor Sorption (DVS) was done using a DVS Intrinsic 1. The sample is loaded into a sample pan and suspended from a microbalance. A typical sample mass for DVS measurement is 25 mg. Nitrogen gas bubbled through distilled water provides the desired relative humidity.
A typical measurement comprises the steps: • 1—Equilibrate at 50% RH • 2-50% to 2%. (50%, 40%, 30%, 20%, 10% and 2%) • a. Hold minimum of 5 mins and maximum of 240 minutes at each humidity. The pass criteria is less than 0.002% change • 3-2% to 95% (2%, 10%, 20%, 30%, 40%, 50%, 60%, 70%, 80%, 90%, 95%) • a. Hold minimum of 5 mins and maximum of 240 minutes at each humidity. The pass criteria is less than 0.002% change • 4-95% to 2% (95%, 80%, 70%, 60%, 50%, 40%, 30%, 20%, 10%, 2%) • a. Hold minimum of 5 mins and maximum of 240 minutes at each humidity. The pass criteria is less than 0.002% change • 5-2% to 50% (2%, 10%, 20%, 30%, 40%, 50%) • a. Hold minimum of 5 mins and maximum of 240 minutes at each humidity. The pass criteria is less than 0.002% change Dynamic Vapor Sorption Isotherm Plots of Solid Forms of Compound A⋅2MSA

[6] = Stability of XRPD pattern on drying; settings: solids from short term slurries; vacuum oven at 50° C., minimum of 4 hours; dimesylate
Procedure: Short term slurries were carried out at two temperatures in 14 solvents. About 25 mg solid was added to a 2 mL vial followed by 0.70 mL of solvent. If all solids dissolved, more solid was added until a slurry was formed within reason. Slurries were stirred at constant temperature for four days (ambient temperature, 21-23° C.; or high temperature, 50° C.). After stirring for four days, solids were allowed to settle and were then recovered for XRPD analysis. XRPD analysis was performed on the wet cake, and if a new pattern was observed, the sample was dried in a vacuum oven at 50° C. for a minimum of 4 hours, then the dried sample was analyzed by XRPD.
Stability on Drying: A sample of Pattern B was prepared on an XRPD sample holder and analysed by XRPD to create a baseline. The disk was then left in a vacuum oven at 50° C. under static vacuum for 3 days. On the third day, the sample was removed from the oven and the “dry” pattern was recorded immediately.
(§1) Compound A⋅2MSA (Pattern A) was slurried in EtOH overnight at room temperature (ca. 16 hours). […] The bulk was dried in a vacuum oven at 50° C. under dynamic vacuum for 4.5 hours. The dried solids were removed from the oven and a “dry” XRPD analysis was collected.

[7] = Storage at ambient conditions (XRPD); settings: bulk, 6 days at ambient conditions; dimesylate
Procedure: Characterization after storage under ambient conditions: Pattern B was left at ambient conditions (21-22° C., 10-40% RH) for a week then characterized by)(RFD, TGA/DSC, and water content measured by Karl-Fischer titration. […] The water content was confirmed by KF titration which yielded a value of 4.20 wt. %.
Compound A⋅2MSA (Pattern A, 0.2622 g) was added to a 20 mL vial with a stir bar. Fifteen volumes (3.93 mL) of EtOH was added and the slurry was stirred overnight (˜20 hours). The slurry was sampled to confirm the correct pattern was generated, then the solids were collected by filtration. The resultant yellow solid was dried in a vacuum oven at 50° C. under dynamic vacuum for 2 hours, then under static vacuum overnight (˜16 hours) to yield 0.2015 g (77% yield). The in-situ sample drawn was dried for 3 hours then the solid was used for characterization by solution ^1H-NMR spectroscopy and simultaneous TGA/DSC. The bulk was dried overnight and used for stand-alone DSC, and thermal treatment.
as §1
Compound A⋅2MSA (Pattern A, 0.2659 g) was added to a 20 mL vial with a stir bar. Twenty-five volumes (6.65 mL) of ACN was added and the slurry was stirred overnight (˜20 hours). The slurry was sampled to confirm the correct pattern was generated, then the solids were collected by filtration. The resultant yellow solid was dried in a vacuum oven at 50° C. under dynamic vacuum for 2 hours, then under static vacuum overnight (˜16 hours) to yield 0.2255 g (85% yield). The sample drawn was dried for 3 hours then the solid was used for characterization by solution ^1H-NMR spectroscopy and simultaneous TGA/DSC. The bulk was dried overnight and used for stand-alone DSC.

concentration at which a solution remained ([1]; water saturated MeOAc): > 90000 µg/mL
concentration at which a solution remained ([1]; water): > 90000 µg/mL
SMILES: CS(=O)(=O)O.CS(=O)(=O)O.N#Cc1cccc(-c2ccc3ncc(-c4cc(F)cc(F)c4)c(N4CCC(N)CC4)c3c2)c1O [Amorphous Compound A⋅2MSA, 3-(4-(4-aminopiperidin-1-yl)-3-(3,5-difluorophenyl)quinolin-6-yl)-2-hydroxybenzonitrile dimesylate]

Output XRPD [2]: C + I
SMILES: CS(=O)(=O)O.CS(=O)(=O)O.N#Cc1cccc(-c2ccc3ncc(-c4cc(F)cc(F)c4)c(N4CCC(N)CC4)c3c2)c1O [C + I, 3-(4-(4-aminopiperidin-1-yl)-3-(3,5-difluorophenyl)quinolin-6-yl)-2-hydroxybenzonitrile dimesylate]

pH (24 hr) ([3]; FaSSGF (pH 1.70)): 1.82
comments ([3]; FaSSGF (pH 1.70), 24 hrs): dissolved
solubility at 24 h ([3]; FaSSGF, 37 °C, pH 1.7, fassgf or other biorelevant, thermodynamic from solid, FaSSGF (pH 1.70), 24 hrs, mg of Compound A (free base), read-out: Concentration): > 10300 µg/mL
pH (24 hr) ([3]; FaSSIF (pH 6.48)): 6.11
comments ([3]; FaSSIF (pH 6.48), 24 hrs): disproportionated
solubility thermodynamic at 24 h ([3]; FaSSIF, 37 °C, pH 6.48, fassif, thermodynamic from solid, FaSSIF (pH 6.48), 24 hrs, mg of Compound A (free base), read-out: Concentration): 9 µg/mL (≈ 0.0197 mM)
pH (24 hr) ([3]; water): 2.71
solubility at 24 h ([3]; water, 37 °C, water, thermodynamic from solid, water, 24 hrs, mg of Compound A (free base), read-out: Concentration): > 9770 µg/mL
comments ([3]; water, 24 hrs): dissolved
Water Content [4]: 1.5% w/w
SMILES: N#Cc1cccc(-c2ccc3ncc(-c4cc(F)cc(F)c4)c(N4CCC(N)CC4)c3c2)c1O [Compound A, 3-(4-(4-aminopiperidin-1-yl)-3-(3,5-difluorophenyl)quinolin-6-yl)-2-hydroxybenzonitrile]

XRPD form after the DVS experiment ([5]; 2-95% RH, dimesylate): converted to Pattern B
reversible water uptake (DVS) ([5]; between 2% and 95% Relative Humidity (RH), dimesylate): 9.1 % w/w
water uptake (DVS) ([5]; between 15 and 75% RH): 2.5 % w/w
total mass difference on the desorption segment (DVS) ([5]; over the 2-95% RH range): 4.6%
total mass difference on the sorption segment (DVS) ([5]; over the 2-95% RH range): 9.1%
mass change (DVS) ([5]; range of 15-75% RH): 2.5 wt. %
Water Content ([4]; dimesylate): 0.29% w/w
XRPD pattern upon drying [6]: stable upon drying
XRPD pattern after storage at ambient conditions [7]: a pattern with additional peaks
SMILES: CS(=O)(=O)O.CS(=O)(=O)O.N#Cc1cccc(-c2ccc3ncc(-c4cc(F)cc(F)c4)c(N4CCC(N)CC4)c3c2)c1O [Pattern I, 3-(4-(4-aminopiperidin-1-yl)-3-(3,5-difluorophenyl)quinolin-6-yl)-2-hydroxybenzonitrile dimesylate]
